19 compounds from patent US4758555A, “Method for treating convulsions and epilepsy with organic copper compounds” (priority 1986, dated 1988) can be followed below.

What all share (type): in vivo, male Carworth Farms #1 mice or Sprague-Dawley rats
The nature of assay [1]: Maximal Electroshock Seizure Test. The following applies: for ED50: read-out: ED50 for inhibition of seizures, MES (Phase II); for Lowest active dose, MES (Phase I): Table V.
Assay [2] is described as follows: Anticonvulsant activity, both or unspecified seizure models. The following applies: for Time of peak activity (Phase II): Table X, IP, challenge time; for Anticonvulsant activity (in words): running text.
A short description of assay [3]: Subcutaneous Pentylenetetrazol (Metrazol) Seizure Threshold Test. The following applies: for ED50: read-out: ED50 for inhibition of seizures, Metrazol (Phase II); for Lowest active dose, Metrazol (Phase I): Table V.
Where [4] appears, read: Mus musculus, Table X, IP, at time of peak activity.
Where [5] appears, read: Table X, IP, challenge time 4 hrs.
Where [6] appears, read: Table X, IP, at time of peak activity.
[7] abbreviates: Table X, IP, challenge time 30 min.
Setting [8] is: Table X, SC, challenge time 30 min.
Setting [9] is: Table X, SC, challenge time 4 hrs.

The term ED50 denotes the dose at which the effect has come halfway, by size or by number of responders. `CCCC(CCC)C(=O)O` [Valproic Acid, reference compound]: the ED50 came to 272 mg/kg in assay [1] (setting [4]) and 149 mg/kg in assay [3] (setting [4]). The “Protection against Maximal Electroshock-induced seizures (in words)” value in assay [1] (running text) is recorded as “weakly effective against Maximal Electroshock-induced seizures”. Besides, in assay [2], the “Time of peak activity (Phase II)” value was 15 min. Besides, the “Protection against Metrazol-induced seizures (in words)” value in assay [3] (running text) was “more effective against Metrazol-induced seizures”.

Take `CCC1(CCC(C)C)C(=O)NC(=O)NC1=O` [Amobarbital, reference compound]: the minimal effective dose turned out to be 30 mg/kg in assay [1] (Mus musculus, 0.5 h, read-out: Lowest effective dose, MES (Phase I)) and 100 mg/kg in assay [3] (Mus musculus, 0.5 h, read-out: Lowest effective dose, Metrazol (Phase I)). Further, the ED50 is 45 mg/kg in assay [1] (Mus musculus, ip) and 53 mg/kg in assay [3] (Mus musculus, ip). The “Lowest effective dose, MES (Phase I)” value in assay [1] (setting [5]) was “I”. In addition, the “Time of peak activity (Phase II)” value in assay [2] is given as 15 min. Further, the “Lowest effective dose, Metrazol (Phase I)” value in assay [3] (setting [5]) is given as “I”.

`CC(C)(C)c1ccc(C(=O)[O-])c(O)c1.CC(C)(C)c1ccc(C(=O)[O-])c(O)c1.CC(C)(C)c1ccc(C(=O)[O-])c(O)c1.CC(C)(C)c1ccc(C(=O)[O-])c(O)c1.O.[Cu+2].[Cu+2]` [Cu(II)2 (4-tertiarybutylsalicylate)2.1/2H2 O]: the “Anticonvulsant activity, Maximal Electroshock (Phase I)” value in assay [1] (Table II, SC) is “I”. Moreover, the “Anticonvulsant activity (in words)” value in assay [2] is “effective at the higher doses studied and for prolonged periods of up to 4 hours”.

For the compound “Cu(II)Pyridoxylidene-L-phenylalaninate(H2 O)2”, the “Lowest active dose, MES (Phase I)” value in assay [1] (IP, challenge time 30 min) was “I”; in assay [1] (IP, challenge time 4 hrs) it was “I”. Also, in assay [2], the “Anticonvulsant activity (in words)” value is recorded as “no activity”. The “Lowest active dose, Metrazol (Phase I)” value in assay [3] (IP, challenge time 30 min) is “I”; in assay [3] (IP, challenge time 4 hrs), “I”.

In the case of `CCC1(c2ccccc2)C(=O)NC(=O)NC1=O` [Phenobarbital, reference compound], the ED50 in assay [1] (Mus musculus, ip) was 22 mg/kg; in assay [3] (Mus musculus, ip) it was 13 mg/kg. Further, the “Time of peak activity (Phase II)” value in assay [2] was found to be 60 min.

For the compound `CC(=O)Oc1c(Br)cc(Br)cc1C(=O)[O-].CC(=O)Oc1c(Br)cc(Br)cc1C(=O)[O-].[Cu+2]` [Cu(II)2 (3,5-dibromoacetylsalicylate)4], the “Anticonvulsant activity (in words)” value in assay [2] is recorded as “effective in protecting against both models of seizure”. In addition, the “Anticonvulsant activity, Metrazol (Phase I)” value in assay [3] (Table I, SC) is “I”.

`Cc1ncc(CO)c(C=NC(C(=O)[O-])C(C)O)c1[O-].O.O.[Cu+2]` [Cu(II)Pyridoxylidene-L-threoninate(H2 O)2]: the “Lowest active dose, MES (Phase I)” value in assay [1] (IP, challenge time 30 min) was “I”; in assay [1] (IP, challenge time 4 hrs) it was “I”. Besides, in assay [2], the “Anticonvulsant activity (in words)” value was “more effective but only protected against the Metrazol-induced seizure”. Moreover, the “Lowest active dose, Metrazol (Phase I)” value was 30 mg/kg of body weight in assay [3] (IP, challenge time 30 min) and 30 mg/kg of body weight in assay [3] (IP, challenge time 4 hrs).

Consider Cu(II)Pyridoxylidene-L-valinate(H2 O), for which the “Lowest active dose, MES (Phase I)” value is on record as “I” in assay [1] (IP, challenge time 30 min) and “I” in assay [1] (IP, challenge time 4 hrs). The “Anticonvulsant activity (in words)” value in assay [2] was “no activity”. Moreover, the “Lowest active dose, Metrazol (Phase I)” value in assay [3] (IP, challenge time 30 min) is “I”; in assay [3] (IP, challenge time 4 hrs) it was “I”.

In the case of `CCC1(c2ccccc2)C(=O)[N-]C(=O)NC1=O.CCC1(c2ccccc2)C(=O)[N-]C(=O)NC1=O.[Cu+2].c1ccncc1.c1ccncc1` [Cu(II)(Phenobarbital)2 (pyridine)2], in assay [1] (setting [6]), the “ED50 for inhibition of seizures, MES (Phase II)” value amounted to 17 mg/kg. In addition, the “Lowest effective dose, MES (Phase I)” value in assay [1] (setting [7]) is recorded as 100 milligrams per kilogram of bod; in assay [1] (setting [5]), 100 milligrams per kilogram of bod; in assay [1] (setting [8]), “I”; in assay [1] (setting [9]), 30 milligrams per kilogram of bod. In addition, the “Time of peak activity (Phase II)” value in assay [2] stood at 120 min. Besides, the “ED50 for inhibition of seizures, Metrazol (Phase II)” value in assay [3] (setting [6]) came to 9 mg/kg. The “Lowest effective dose, Metrazol (Phase I)” value is 30 milligrams per kilogram of bod in assay [3] (setting [7]), 30 milligrams per kilogram of bod in assay [3] (setting [5]), “I” in assay [3] (setting [8]) and 30 milligrams per kilogram of bod in assay [3] (setting [9]).

Regarding `O=C1CN=C(c2ccccc2Cl)c2cc([N+](=O)[O-])ccc2N1.O=C1CN=C(c2ccccc2Cl)c2cc([N+](=O)[O-])ccc2N1.[Cl-].[Cl-].[Cu+2]` [Cu(II)(Clonazepam)2 (Cl)2], the “ED50 for inhibition of seizures, MES (Phase II)” value in assay [1] (setting [6]) is 25 mg/kg. Also, the “Lowest effective dose, MES (Phase I)” value is given as 10 milligrams per kilogram of bod in assay [1] (setting [7]), “I” in assay [1] (setting [5]), 1 milligrams per kilogram of bod in assay [1] (setting [8]) and 30 milligrams per kilogram of bod in assay [1] (setting [9]). Besides, the “Time of peak activity (Phase II)” value in assay [2] is reported as 30 min. In addition, in assay [2] (in vivo), the “Potency or effectiveness relative to a comparator (in words)” value is given as “four times as effective as the parent drug”. For the same compound, the “Anticonvulsant activity (in words)” value in assay [2] was “very potent anticonvulsant”. Besides, the “ED50 for inhibition of seizures, Metrazol (Phase II)” value in assay [3] (setting [6]) came out at 0.05 mg/kg. Moreover, the “Lowest effective dose, Metrazol (Phase I)” value in assay [3] (setting [7]), in assay [3] (setting [5]), in assay [3] (setting [8]) and in assay [3] (setting [9]) was 1 milligrams per kilogram of bod each time.

`Cc1ncc(CO)c(C=N[C@@H](CO)C(=O)[O-])c1[O-].O.[Cu+2]` [Cu(II)Pyridoxylidene-L-serinate(H2 O)]: the “Lowest active dose, MES (Phase I)” value in assay [1] (IP, challenge time 30 min) is recorded as “I”; in assay [1] (IP, challenge time 4 hrs), “I”. For the same compound, the “Anticonvulsant activity (in words)” value in assay [2] is reported as “more effective but only protected against the Metrazol-induced seizure”. Also, the “Lowest active dose, Metrazol (Phase I)” value is recorded as 100 mg/kg of body weight in assay [3] (IP, challenge time 30 min) and 100 mg/kg of body weight in assay [3] (IP, challenge time 4 hrs).

In the case of `O=C1Nc2ccc(Cl)cc2C(c2ccccc2Cl)=NC1O` (stereo not drawn) [Lorazepam, reference compound], the ED50 in assay [1] (Mus musculus, ip) was found to be 24 mg/kg; in assay [3] (Mus musculus, ip), 0.02 mg/kg. In addition, the “Time of peak activity (Phase II)” value in assay [2] turned out to be 60 min.

`Cc1ncc(CO)c(C=NCC(=O)[O-])c1[O-].Cc1ncc(CO)c(C=NCC(=O)[O-])c1[O-].O.O.O.[Cu+2].[Cu+2]` [Cu(II)Pyridoxylideneglycinate(H2 O)1.5]: the “Lowest active dose, MES (Phase I)” value in assay [1] (IP, challenge time 30 min) is 300 mg/kg of body weight; in assay [1] (IP, challenge time 4 hrs) it was “I”. In addition, in assay [2], the “Anticonvulsant activity (in words)” value is “protected against both types of seizure”. Besides, the “Lowest active dose, Metrazol (Phase I)” value in assay [3] (IP, challenge time 30 min) is 100 mg/kg of body weight; in assay [3] (IP, challenge time 4 hrs) it was “I”.

For the compound Cu(II)oxazepam, the “Lowest effective dose, MES (Phase I)” value in assay [1] (setting [7]) is given as 10 milligrams per kilogram of bod; in assay [1] (setting [5]), “I”. In addition, the “Onset and duration of anticonvulsant action (in words)” value in assay [2] is on record as “more prolonged in its action against Metrazol induced seizures”. Moreover, the “Anticonvulsant activity (in words)” value in assay [2] was “protected against both types of seizure”. In addition, the “Lowest effective dose, Metrazol (Phase I)” value was 1 milligrams per kilogram of bod in assay [3] (setting [7]) and 10 milligrams per kilogram of bod in assay [3] (setting [5]).

Regarding `CN1C(=O)CN=C(c2ccccc2)c2cc(Cl)ccc21.CN1C(=O)CN=C(c2ccccc2)c2cc(Cl)ccc21.[Cl-].[Cl-].[Cu+2]` [Cu(II)(Diazepam)2 (Cl)2], the “Lowest effective dose, MES (Phase I)” value in assay [1] (setting [7]) and in assay [1] (setting [5]) was 30 milligrams per kilogram of bod throughout. Further, in assay [2], the “Onset and duration of anticonvulsant action (in words)” value is “rapid onset of action and prolonged duration following intraperitoneal administration”. Further, the “Lowest effective dose, Metrazol (Phase I)” value in assay [3] (setting [7]) and in assay [3] (setting [5]) was 30 milligrams per kilogram of bod each time.

For `CC(=O)Oc1c(I)cc(I)cc1C(=O)[O-].CC(=O)Oc1c(I)cc(I)cc1C(=O)[O-].O.O.O.[Cu+2]` [Cu(II)2 (3,5-diiodoacetylsalicylate)4 (H2 O)6], the “Anticonvulsant activity, Maximal Electroshock (Phase I)” value in assay [1] (Table I, IP) is on record as “I”. In addition, the “Anticonvulsant activity (in words)” value in assay [2] was “effective in protecting against both models of seizure”.

For the compound `CC(=O)Oc1ccccc1C(=O)[O-].CC(=O)Oc1ccccc1C(=O)[O-].CC(=O)Oc1ccccc1C(=O)[O-].CC(=O)Oc1ccccc1C(=O)[O-].[Cu+2].[Cu+2]` [Cu(II)2 (acetylsalicylate)4], the “Anticonvulsant activity, Maximal Electroshock (Phase I)” value in assay [1] (Table I, SC) is “I”. Moreover, in assay [2], the “Anticonvulsant activity (in words)” value is “activity at 30 minutes, 6 hours and 8 hours following subcutaneous injection of the entire range of doses studied”.

Regarding `O=C([O-])c1ccccc1OC(=O)C12CC3CC(CC(C3)C1)C2.O=C([O-])c1ccccc1OC(=O)C12CC3CC(CC(C3)C1)C2.O=C([O-])c1ccccc1OC(=O)C12CC3CC(CC(C3)C1)C2.O=C([O-])c1ccccc1OC(=O)C12CC3CC(CC(C3)C1)C2.[Cu+2].[Cu+2]` [Cu(II)2 (adamantylsalicylate)4], the “Anticonvulsant activity, Maximal Electroshock (Phase I)” value in assay [1] (Table I, SC) is given as “I”. For the same compound, the “Anticonvulsant activity (in words)” value in assay [2] was “anticonvulsant activity at 30 minutes following subcutaneous injection at 30 and 300 mg/kg”.

As for `O.O.O=C([O-])c1cc(Cl)cc(Cl)c1O.O=C([O-])c1cc(Cl)cc(Cl)c1O.[Cu+2]` [Cu(II)(3,5-dichlorosalicylate)2 (H2 O)2], the “Anticonvulsant activity, Maximal Electroshock (Phase I)” value in assay [1] (Table II, SC) is on record as “I”. Also, the “Anticonvulsant activity (in words)” value in assay [2] was “effective in preventing both the Maximal Electroshock and Metrazol-inducedseizures in Phase I studies”.
